Test results reported in US20100331338A1, “Glucokinase Activators” (Merck Patent GMBH, priority 2008, published 2010).

Target: T1, hGK (Homo sapiens, UniProt P35557)
T1 sequence (P35557 1-465): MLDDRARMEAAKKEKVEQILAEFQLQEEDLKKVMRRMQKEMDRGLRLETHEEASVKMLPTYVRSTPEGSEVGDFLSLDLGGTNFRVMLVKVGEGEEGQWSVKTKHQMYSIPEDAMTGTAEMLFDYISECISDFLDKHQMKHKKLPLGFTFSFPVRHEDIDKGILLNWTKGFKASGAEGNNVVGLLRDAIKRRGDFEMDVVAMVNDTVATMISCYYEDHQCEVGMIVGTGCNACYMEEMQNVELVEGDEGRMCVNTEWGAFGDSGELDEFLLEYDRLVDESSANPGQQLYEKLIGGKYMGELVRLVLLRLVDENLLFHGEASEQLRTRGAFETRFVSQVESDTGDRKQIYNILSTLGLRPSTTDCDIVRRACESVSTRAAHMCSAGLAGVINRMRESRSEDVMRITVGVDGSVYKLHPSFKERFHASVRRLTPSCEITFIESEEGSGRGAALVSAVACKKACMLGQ
Assay: Glucokinase Activation Screening Assay (coupled enzyme assay with PK/LDH)
Assay type: biochemical
Details: 2 mM glucose; for hGK fold activation at 30 μM: fold activation at 30 μM compound
Procedure: Glucokinase Activation Screening Assay
GK activity (human or rat enzyme) is measured by a coupled enzyme assay using pyruvate kinase (PK) and lactate dehydrogenase (LDH) as coupling enzymes. GK activity is calculated from the decline in NADH monitored photometrically with a microtiter plate (MTP) reader at 340 nm.
For screening purposes, the GK assay is routinely run in a 384-MTP format, in a total volume of 33 μl/well. 10 μl of the ATP-regeneration solution (in HEPES-buffer*, pH 7.0, 6.73 U/ml pyruvate kinase, 6.8 U/ml lactate dehydrogenase) and 10 μl of the glucokinase-/glucose solution (15 μg/ml, 6.6 mM glucose in HEPES-buffer*, pH 7.0; the concentration of the glucose stock-solution was 660 mM in Millipore H2O) were mixed together with […] of a 10% DMSO solution (in HEPES-buffer*, pH 7.0) containing 3.3-fold the amounts of the compounds to achieve final compound concentrations in the range between 1 nM to 30 μM (sometimes 300 μM) in the assay solution (s. below). The solutions were mixed for 5 sec, and after a centrifugation at 243×g for 5 min, the solutions were preincubated for 25 min at room temperature.
The reaction was started by the addition of 10 μl of the NADH-/ATP-solution (4.29 mM NADH, 4.95 mM ATP, in HEPES-buffer*). The MTP was shaken for 5 sec., and then, the absorbance at 340 nm was monitored continuously in a MTP-reader (TECAN Spectro fluor plus) for the next 27 min (with a MTP-cycling time of 199 sec.). The final concentrations of the various components were as follows: 49.5 mM Hepes, pH 7.0, 1.49 mM PEP,1,3 mM NADH, 49.5 mM KCl, 4.96 mM MgCl2, 1.5 mM Mg-ATP, 1.98 mM DTT, 2.04 U/ml pyruvate kinase, 2.06 U/ml lactate-dehydrogenase, 0.91% DMSO, 0.15 μg/well glucokinase, and test compounds in the range between 1 nM and 300 μM.
The change in the optical density (ΔOD340 nm) in the presence of the compound was expressed relative to the ΔOD340 nm, ctrl of the control incubation (in the presence of 2 mM glucose and 0.91% DMSO), taking into account the optical density of the blank sample (incubation in the absence of 2 mM glucose). For the determination of the half maximal effective concentration (EC50), the %-Ctrl-values were plotted in a semi-logarithmic graph against the conc. of the compound of interest. The data points were fitted to a sigmoid curve function (f(x)=((%-Ctrlmax%-Ctrlmin)/(1−(EC50/x**^n(Hill)))+%-Ctrlmin)) by a non-linear regression analysis.
* Hepes-buffer (50 mM Hepes, pH 7.0, 5 mM MgCl2, 50 mM KCl, 1.5 mM PEP, 0.1% BSA). DTT was added to the Hepes-buffer from a 200× stock solution (in Millipore H2O) freshly each day. The final concentration of DTT in the Hepes-buffer is 2 mM.

SMILES	EC50 [µM]	hGK fold activation at 30 μM
CCCc1cc(C(=O)Nc2nc(C(=O)O)cs2)cs1 [Example 42, 2-[(5-Propyl-thiophene-3-carbonyl)-amino]-thiazole-4-carboxylic acid]	9	3.3
COCc1csc(C(=O)Nc2cc(C)n(CC(=O)O)n2)c1 [Example 43, {3-[(4-Methoxymethyl-thiophene-2-carbonyl)-amino]-5-methyl-pyrazol-1-yl}-acetic acid]		1.2
COCc1csc(C(=O)Nc2ccn(CC(=O)O)n2)c1 [Example 44, {3-[(4-Methoxymethyl-thiophene-2-carbonyl)-amino]-pyrazol-1-yl}-acetic acid]		1.7
CCCc1cc(C(=O)Nc2nc(CC(=O)O)cs2)cs1 [Example 46, {2-[(5-Propyl-thiophene-3-carbonyl)-amino]-thiazol-4-yl}-acetic acid]		2.1
CCN(CC)S(=O)(=O)c1cc(C(=O)Nc2nccs2)sc1C [Example 48, 4-Diethylsulfamoyl-5-methyl-thiophene-2-carboxylic acid thiazol-2-ylamide]	3.9	6.4
Cc1sc(C(=O)Nc2nccs2)cc1S(=O)(=O)NCc1ccccc1 [Example 49, 4-Benzylsulfamoyl-5-methyl-thiophene-2-carboxylic acid thiazol-2-ylamide]		1.3
Cc1sc(C(=O)Nc2nccs2)cc1S(=O)(=O)N(C)C [Example 50, 4-Dimethylsulfamoyl-5-methyl-thiophene-2-carboxylic acid thiazol-2-ylamide]	3.9	2.6
CCCOc1sc(C(=O)Nc2nccs2)cc1S(C)(=O)=O [Example 52, 4-Methanesulfonyl-5-propoxy-thiophene-2-carboxylic acid thiazol-2-ylamide]	10	2.1
CCCc1cc(C(=O)Nc2nccs2)cs1 [Example 53, 5-Propyl-thiophene-3-carboxylic acid thiazol-2-ylamide]	10	5.6
